Measurements from patent publication US12469647B2, “Electrolytic capacitor” (Panasonic Intellectual Property Management Co., Ltd., priority 2020, dated 2025).

experiment: acid dissociation constant (pKa) of the conjugate acid of the base component; settings: water
Description: The pKa of the conjugate acid of the base is the pKa of the cation of the base.

Going from `CCCCN1CCOCC1` [N-butylmorpholine] to `CCCCNCCCC` [dibutylamine], the pKa rises from 7.5 to 11.3.

For `CC(C)CN(CC(C)C)CC(C)C` [triisobutylamine], the pKa was 9.5.
